Assay in all cases: NCI tumour cell line growth inhibition, 48 h
Test [1] deals with RXF 393 renal.
Test [2] has as its system MDA-MB-435.
The subject of test [3] is 786-0 renal.
For test [4], the system named is OVCAR-8 ovarian.
The subject of test [5] is SR leukemia.
The test system of test [6] is MOLT-4 leukemia.
Test [7] has as its system MDA-MB-231 breast.
Test [8] relates to HCC-2998 colon.
The subject of test [9] is HS 578T breast.
Test [10] has as its system NCI/ADR-RES ovarian.
Test [11] has as its system HOP-92 NSCLC.
In test [12] the test system is OVCAR-4 ovarian.
In test [13] the test system is NCI-H460 lung.
For test [14], the system named is RPMI-8226 leukemia.
Test [15] concerns SW-620 colon.
Test [16] deals with SF-268 CNS.
Test [17] has as its system UO-31 renal.
In test [18] the test system is UACC-62 melanoma.
In test [19] the test system is SF-295 CNS.
The subject of test [20] is SNB-75 CNS.

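Results reflect a 48-hour exposure of cells in 96-well plates to compound at five concentrations. TGI marks complete inhibition of growth.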 Where a SMILES comes first, the peptide text is derived from it. The star is where a group is joined. Fmoc = O=C(OCC1c2ccccc2-c2ccccc21)*; Boc = CC(C)(C)OC(=O)*

For the compound `Cc1cc(C)nc(SC(C)C(=O)N/N=C/c2ccc(OCc3ccccc3)cc2)n1` (stereo not given), the TGI in [1] was 66.6 µM; in test [2], over 100 µM; in test [3], over 100 µM; in [4], over 100 µM; in test [5] it was 38.1 µM; in test [6], 86.1 µM. The TGI was 65 µM in test [7]; over 100 µM in test [8]; over 100 µM in test [9]; over 100 µM in [10]; over 100 µM in [11]; over 100 µM in test [12]. The TGI was over 100 µM in test [13]; 41.9 µM in test [14]; over 100 µM in [15]; over 100 µM in [16]; over 100 µM in test [17]; 92.5 µM in [18]. Moreover, the TGI in test [19] and in test [20] was over 100 µM in each case.
On to `CC(=O)N(O)[C@@H]1CC[C@H](n2cnc3c(N)ncnc32)C1`, for which the TGI in test [1], in test [2], in test [3], in test [4], in test [5] and in [6] was over 100 µM throughout. For the same compound, the TGI in test [7], in test [8], in test [9], in test [10], in [11] and in test [12] was over 100 µM throughout. Moreover, the TGI in test [13], in test [14], in test [15], in test [16], in test [17] and in test [18] was over 100 µM in each case. The TGI in test [19] and in test [20] was over 100 µM each time.
As for `CCCCCCCCCCCCCC[S+](C)C`, the TGI in test [1] stood at 2.72 µM; in test [2] it was 4.35 µM; in [3], 2.61 µM; in [4], 3.58 µM; in test [5], 2.35 µM; in [6] it was 2.85 µM. The TGI in test [7] is 4.64 µM; in test [8], 3.49 µM; in test [9], 3.78 µM; in test [10] it was over 10 µM; in [11], 3.67 µM; in test [12], 7.31 µM. In addition, the TGI is 6.78 µM in test [13]; 2.65 µM in [14]; over 10 µM in test [15]; 3.99 µM in [16]; over 10 µM in [17]; 6.78 µM in test [18]. Also, the results for the TGI in test [19] and in test [20] were over 10 µM and 3.51 µM, respectively.
For `Cc1cc(Cc2c(F)c(F)c(C(c3cc(C)no3)c3c(F)c(F)c(F)c(F)c3F)c(F)c2F)on1` (stereo not given), the TGI in test [1] is 8.08 µM; in test [2], over 41.9 µM; in test [3], over 100 µM; in [4] it was over 100 µM; in test [5] it was over 100 µM; in test [6], over 100 µM. In addition, the TGI in test [7], in test [8], in [9], in test [10], in test [11] and in test [12] was over 100 µM in each case. In addition, the TGI in [13], in test [14], in [15], in test [16], in test [17] and in [18] was over 100 µM each time. Moreover, the TGI in test [19] and in [20] was over 100 µM throughout.
For `CCOC(=O)c1c(N2CCCC2)[nH]c(=O)c(C(c2ccco2)c2c(O)c(C(=O)OCC)c(N3CCCC3)[nH]c2=O)c1O`, the TGI in [1], in test [2], in [3], in test [4], in [5] and in [6] was over 100 µM in each case. The TGI in test [7], in test [8], in test [9], in test [10], in test [11] and in test [12] was over 100 µM each time. In addition, the TGI in [13], in test [14], in test [15], in [16], in test [17] and in [18] was over 100 µM each time. Also, the TGI in [19] was over 100 µM; in [20], 60.5 µM.
Consider `Nc1nc(Cl)cc(NCCC2(CO)CCC2)n1`, for which the TGI in [1], in [2], in [3], in test [4], in test [5] and in [6] was over 100 µM each time. The TGI in [7], in test [8], in test [9], in test [10], in test [11] and in test [12] was over 100 µM each time. In addition, the TGI in [13], in test [14], in [15], in test [16], in test [17] and in [18] was over 100 µM in each case. Also, the TGI in test [19] and in [20] was over 100 µM in each case.
As for `CC(C)(C)OC(=O)NCCCCC(NC(=O)OCC1c2ccccc2-c2ccccc21)C(=O)N1CCCC1C(=O)NCC(N)=O` (stereo not drawn) (Fmoc-Lys(Boc)-Pro-Gly-NH2; configuration not given here), the TGI was over 100 µM in test [1]; 84.8 µM in [2]; 34.3 µM in test [3]; over 100 µM in test [4]; 49.5 µM in [5]; 77.3 µM in test [6]. The TGI in [7] was over 100 µM; in [8], over 100 µM; in test [9] it was over 100 µM; in test [10] it was over 100 µM; in test [11] it was 48.2 µM; in test [12], 44.6 µM. The TGI in test [13] was 37.9 µM; in test [14], over 100 µM; in test [15] it was over 100 µM; in [16] it was over 100 µM; in test [17], 29.1 µM; in [18], over 100 µM. Moreover, the TGI in test [19] and in [20] was over 100 µM throughout.
As for `Cn1c(-c2ccccc2)cc2c3ccsc3c3ccsc3c21`, the TGI in test [1], in [2], in test [3], in [4], in [5] and in test [6] was over 100 µM throughout. In addition, the TGI in test [7], in test [8], in test [9], in [10], in test [11] and in test [12] was over 100 µM each time. Besides, the TGI in [13], in [14], in test [15], in test [16], in test [17] and in test [18] was over 100 µM each time. Further, the TGI in test [19] and in test [20] was over 100 µM each time.
`CN1C(=O)[C@@H]2[C@@H]3c4ccccc4N(S(=O)(=O)C(F)(F)F)[C@@H]3c3[nH]c4ccccc4c3[C@@H]2C1=O`: the TGI in test [1] was over 100 µM; in test [2], over 100 µM; in test [3], over 100 µM; in test [4], over 100 µM; in [5] it was 43 µM; in [6] it was 47 µM. The TGI is over 100 µM in test [7]; over 100 µM in test [8]; over 100 µM in [9]; over 100 µM in [10]; 35.4 µM in test [11]; over 100 µM in test [12]. The TGI in test [13], in [14], in test [15], in test [16], in [17] and in test [18] was over 100 µM throughout. Besides, the TGI in [19] and in [20] was over 100 µM throughout.
Consider `COC(=O)/C=C/c1ccc2c(c1)CC1(C2)Cc2cc3c(cc2C1=O)CCC3` (stereo not given), for which the TGI is 84.9 µM in test [1]; over 100 µM in [2]; 68.7 µM in [3]; 68.8 µM in test [4]; over 100 µM in test [5]; over 100 µM in [6]. In addition, the TGI was over 100 µM in test [7]; over 100 µM in test [8]; 78.9 µM in [9]; over 100 µM in test [10]; over 100 µM in test [11]; over 100 µM in [12]. The TGI in [13], in test [14], in [15], in test [16], in test [17] and in [18] was over 100 µM in each case. Further, the TGI was over 100 µM in test [19] and 71.3 µM in [20].
With `CC(=C(C(N)=O)C(N)=O)C1C=C(c2cccs2)CC(c2ccc(Cl)cc2)=C1O` (stereo not given), the TGI was over 100 µM in test [1]; over 100 µM in test [2]; over 100 µM in [3]; over 100 µM in test [4]; 81.6 µM in test [5]; over 100 µM in [6]. The TGI in test [7] was over 100 µM; in test [8], over 100 µM; in test [9], over 100 µM; in test [10] it was over 100 µM; in [11] it was over 100 µM; in test [12], 78.8 µM. The TGI in test [13], in [14], in [15], in test [16], in [17] and in [18] was over 100 µM in each case. Moreover, the TGI in [19] and in test [20] was over 100 µM in each case.
As for `NCCCNC1(c2cc3ccccc3s2)CCCCC1`, the TGI amounted to 17.3 µM in [1]; 4.48 µM in test [2]; 5.27 µM in [3]; 24.4 µM in test [4]; 4.68 µM in test [5]; 15.7 µM in [6]. The TGI was found to be 14.2 µM in test [7]; 2.98 µM in [8]; 30.2 µM in test [9]; 30.4 µM in test [10]; 25.5 µM in test [11]; 25.5 µM in test [12]. The TGI in [13] stood at 4.06 µM; in [14], 5.88 µM; in test [15], 21.2 µM; in [16], 24.7 µM; in test [17] it was 8.44 µM; in test [18], 3.87 µM. Moreover, the TGI amounted to 24.8 µM in test [19] and 24.2 µM in [20].
Consider `CSc1ccc(NC(=S)NN(C)C)cc1`, for which the TGI in test [1], in test [2], in test [3], in test [4], in [5] and in [6] was over 10 µM throughout. For the same compound, the TGI in test [7], in test [8], in test [9], in test [10], in [11] and in [12] was over 10 µM each time. Moreover, the TGI in [13], in [14], in [15], in test [16], in [17] and in test [18] was over 10 µM each time. In addition, the TGI in [19] and in test [20] was over 10 µM in each case.
Turning to `Fc1ccc2nc3n(c2c1)C(c1c(Cl)cccc1Cl)SC3` (stereo not given), the TGI in test [1], in [2], in [3], in [4], in test [5] and in test [6] was over 100 µM each time. Also, the TGI in test [7], in test [8], in test [9], in test [10], in [11] and in [12] was over 100 µM in each case. In addition, the TGI in test [13], in test [14], in [15], in test [16], in test [17] and in [18] was over 100 µM each time. The TGI in test [19] and in test [20] was over 100 µM throughout.

Values taken from PubChem BioAssay (NCI).
